According to PMC5453931, “Cathelicidin-trypsin inhibitor loop conjugate represents a promising antibiotic candidate with protease stability” (Scientific Reports, 2017):
Values after ≈ are worked out from the molar mass of the structure shown. Like-named read-outs stand apart in the source and are kept apart here.

Tests used:
[1] = test system: 08030209; experiment: microbe, parasite or virus in culture; assay type: cell-based, Arcyria cinerea; settings: Arcyria cinerea, 18 h, read-out: MIC Arcyria cinerea 08030209
Procedure: (§1) A two-fold broth microdilution method described in our previous paper was used to determine the antimicrobial activities of parental and hybrid peptides. More than 30 strains including Gram-negative bacteria, Gram-positive bacteria and fungi were used in the current assay, in which the standard strains were stored in our lab and the clinical strains were collected from local hospitals. Briefly, bacteria were incubated in Mueller-Hinton broth (MH broth) at 37 °C to exponential phase and diluted to 10^6 CFU/mL. A serial dilution of peptide sample were prepared in 96-well microtiter plates (50 μL) and mixed with equal volume of microbial inoculums (50 μL). The plate was slowly shaken in the microbial incubator, and measured at A595 after incubation at 37 °C for 18 h. The minimal concentrations at which no microbial growth occurred were recorded as MIC (minimal inhibitory concentration) values. The traditional antibiotic ampicillin was used as positive control. The results are shown in an average of the MICs obtained from three independent experiments.

[2] = test system: E. coli 08040726; experiment: MIC, two-fold broth microdilution (second listing of the strain number); assay type: cell-based; settings: Gram-negative, MH broth, 37 °C, 18 h, mean of three independent experiments in duplicates
Procedure: as §1

[3] = test system: E. coli 08040726; assay type: cell-based; settings: Gram-negative, two-fold broth microdilution, MH broth, 37 °C, 18 h, mean of three independent experiments in duplicates
Procedure: as §1

[4] = test system: E. coli 08040726; experiment: Bacterial killing kinetic assay, colony counting; assay type: cell-based
Procedure: The bacterial killing kinetics of the hybrid peptides against E. coli 08040726 was determined by counting the changes in the viable bacterial clones after peptide treatment. The experiment was carried out according to the method described previously with minor modifications. Fresh colonies of the bacteria were incubated in MH broth at 37 °C for 12 h and diluted to 10^6 CFU/in fresh MH broth. The hybrid peptide was added to the bacterial suspension with a final concentration of 1x and 5x corresponding MICs, and incubated at 37 °C for 0, 10, 20, 30, 45, 60, 90, 120, and 180 mins. At each time point, aliquots (50 μL) were removed and diluted with fresh MH broth for 1000 times. […] of the dilutions were coated on MH agar plates, incubated overnight at 37 °C, and the viable colonies were counted. Ampicillin was used as positive control and sterile deionized water was used as negative control.

[5] = test system: Staphylococcus epidermidis; experiment: MIC, two-fold broth microdilution; assay type: cell-based; settings: Staphylococcus epidermidis, 18 h, read-out: MIC Staphylococcus epidermidis
Procedure, shortened: (§2)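 Growth at A595 after 18 h at 37 °C defines the MIC, taken as the minimal peptide concentration giving no microbial growth. Organisms were grown to exponential phase in Mueller-Hinton broth and diluted to 10^6 CFU/mL prior to combining with an equal volume of peptide dilutions.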

[6] = test system: Vibrio Parahaemolyticus; experiment: MIC, two-fold broth microdilution; assay type: cell-based; settings: Vibrio parahaemolyticus, 18 h, read-out: MIC Vibrio Parahaemolyticus
Procedure, shortened: as §2

[7] = test system: E. Coli 08032813; experiment: MIC, two-fold broth microdilution; assay type: cell-based; settings: Escherichia coli, 18 h, read-out: MIC E. Coli 08032813
Procedure, shortened: as §2

[8] = test system: S. Maltophilia 090223; experiment: microbe, parasite or virus in culture; assay type: cell-based; settings: Stenotrophomonas maltophilia, 18 h, read-out: MIC S. Maltophilia 090223
Procedure: as §1

[9] = test system: Edwardsiella tarda; experiment: microbe, parasite or virus in culture; assay type: cell-based; settings: Edwardsiella tarda, 18 h, read-out: MIC Edwardsiella tarda
Procedure: as §1

[10] = test system: S. Aureus 08032810; experiment: microbe, parasite or virus in culture; assay type: cell-based; settings: Staphylococcus aureus, 18 h, read-out: MIC S. Aureus 08032810
Procedure: as §1

[11] = test system: P. Aeruginosa 08021015; experiment: microbe, parasite or virus in culture; assay type: cell-based; settings: Pseudomonas aeruginosa, 18 h, read-out: MIC P. Aeruginosa 08021015
Procedure: as §1

[12] = test system: S. Aureus 08032615; experiment: microbe, parasite or virus in culture; assay type: cell-based; settings: Staphylococcus aureus, 18 h, read-out: MIC S. Aureus 08032615
Procedure: as §1

[13] = test system: Vibrio brasiiensis; experiment: microbe, parasite or virus in culture; assay type: cell-based; settings: Vibrio, 18 h, read-out: MIC Vibrio brasiiensis
Procedure: as §1

[14] = test system: Candida glabrata 08A802; experiment: microbe, parasite or virus in culture; assay type: cell-based; settings: Nakaseomyces glabratus, 08A802, 18 h, read-out: MIC Candida glabrata 08A802
Procedure: as §1

[15] = test system: E. Coli 08032823; experiment: microbe, parasite or virus in culture; assay type: cell-based; settings: Escherichia coli, 18 h, read-out: MIC E. Coli 08032823
Procedure: as §1

[16] = test system: Enterococcus faecium 08052315; experiment: microbe, parasite or virus in culture; assay type: cell-based; settings: Enterococcus faecium, 08052315, 18 h, read-out: MIC Enterococcus faecium 08052315
Procedure: as §1

[17] = test system: K. Pneumoniae 08031012; experiment: microbe, parasite or virus in culture; assay type: cell-based; settings: Klebsiella pneumoniae, 18 h, read-out: MIC K. Pneumoniae 08031012
Procedure: as §1

[18] = test system: Shigella dysenteriae 0804203; experiment: microbe, parasite or virus in culture; assay type: cell-based; settings: Shigella dysenteriae, 0804203, 18 h, read-out: MIC Shigella dysenteriae 0804203
Procedure: as §1

[19] = test system: Vibrio harveyi; experiment: microbe, parasite or virus in culture; assay type: cell-based; settings: Vibrio harveyi, 18 h, read-out: MIC Vibrio harveyi
Procedure: as §1

[20] = test system: Vibrio cholerae; experiment: microbe, parasite or virus in culture; assay type: cell-based; settings: Vibrio cholerae, 18 h, read-out: MIC Vibrio cholerae
Procedure: as §1

[21] = test system: Escherichia coli ATCC25922; experiment: microbe, parasite or virus in culture; assay type: cell-based; settings: Escherichia coli, ATCC25922, 18 h, read-out: MIC Escherichia coli ATCC25922
Procedure: as §1

[22] = test system: Aeromonas sobria; experiment: microbe, parasite or virus in culture; assay type: cell-based; settings: Aeromonas sobria, 18 h, read-out: MIC Aeromonas sobria
Procedure: as §1

[23] = test system: K. Pneumoniae 08040202; experiment: microbe, parasite or virus in culture; assay type: cell-based; settings: Klebsiella pneumoniae, 18 h, read-out: MIC K. Pneumoniae 08040202
Procedure: as §1

[24] = test system: S. Aureus 08032706; experiment: microbe, parasite or virus in culture; assay type: cell-based; settings: Staphylococcus aureus, 18 h, read-out: MIC S. Aureus 08032706
Procedure: as §1

[25] = test system: Proteus mirabilis 1376; experiment: microbe, parasite or virus in culture; assay type: cell-based; settings: Proteus mirabilis, 1376, 18 h, read-out: MIC Proteus mirabilis 1376
Procedure: as §1

[26] = test system: Nocardia asteroides 08052412; experiment: microbe, parasite or virus in culture; assay type: cell-based; settings: Nocardia asteroides, 08052412, 18 h, read-out: MIC Nocardia asteroides 08052412
Procedure: as §1

[27] = test system: Aeromonas veronii; experiment: microbe, parasite or virus in culture; assay type: cell-based; settings: Aeromonas veronii, 18 h, read-out: MIC Aeromonas veronii
Procedure: as §1

[28] = test system: Bacillus subtilis 08042313; experiment: microbe, parasite or virus in culture; assay type: cell-based; settings: Bacillus subtilis, 08042313, 18 h, read-out: MIC Bacillus subtilis 08042313
Procedure: as §1

[29] = test system: Candida albicans 08030102; experiment: microbe, parasite or virus in culture; assay type: cell-based; settings: Candida albicans, 08030102, 18 h, read-out: MIC Candida albicans 08030102
Procedure: as §1

**Q.** For `CC1(C)S[C@@H]2[C@H](NC(=O)[C@H](N)c3ccccc3)C(=O)N2[C@H]1C(=O)O` [Ampicillin, reference compound], which MIC [1] is on record?
**A.** The MIC was over 200 mg/L.

**Q.** What about the “MIC E. Coli 08040726 (second line with this strain number)” value [2] of the same compound?
**A.** Its value is “— (no detectable activity in MIC assay in dose of 200 µg/mL or in trypsin inhibition assay at concentration of 160 μg/mL)”.

**Q.** What about the “MIC E. coli 08040726” value [3] of the same compound?
**A.** Its value is 9.38 mg/L (≈ 26.8 µM).

**Q.** And the “MIC E. coli 08040726” value ([3]; listed as ampicillin)?
**A.** Its value is 0.12 mg/L (≈ 0.343 µM).

**Q.** What about the “time of killing toward E. coli” value ([4]; 1xMIC) of the same compound?
**A.** Its value is 6 h.

**Q.** What about the “time of killing toward E. coli” value ([4]; 5xMIC) of the same compound?
**A.** The value was 3 h.

**Q.** What about the MIC [5] of the same compound?
**A.** Its MIC is over 200 mg/L.

**Q.** And the MIC [6]?
**A.** The MIC was 18.8 mg/L (≈ 53.7 µM).

**Q.** And the MIC [7]?
**A.** The MIC was over 200 mg/L.

**Q.** And the MIC [8]?
**A.** Its MIC is over 200 mg/L.

**Q.** What about the MIC [9] of the same compound?
**A.** The MIC was over 200 mg/L.

**Q.** What about the MIC [10] of the same compound?
**A.** The MIC was over 200 mg/L.

**Q.** What about the MIC [11] of the same compound?
**A.** Its MIC is 9.38 mg/L (≈ 26.8 µM).

**Q.** What about the MIC [12] of the same compound?
**A.** The MIC was 9.38 mg/L (≈ 26.8 µM).

**Q.** And the MIC [13]?
**A.** Its MIC is over 200 mg/L.

**Q.** And the MIC [14]?
**A.** Its MIC is 18.8 mg/L (≈ 53.7 µM).

**Q.** And the MIC [15]?
**A.** The MIC was over 200 mg/L.

**Q.** What about the MIC [16] of the same compound?
**A.** Its MIC is over 200 mg/L.

**Q.** What about the MIC [17] of the same compound?
**A.** Its MIC is over 200 mg/L.

**Q.** What about the MIC [18] of the same compound?
**A.** Its MIC is 75 mg/L (≈ 215 µM).

**Q.** What about the MIC [19] of the same compound?
**A.** Its MIC is 37.5 mg/L (≈ 107 µM).

**Q.** What about the MIC [20] of the same compound?
**A.** Its MIC is over 200 mg/L.

**Q.** And the MIC [21]?
**A.** Its MIC is 4.69 mg/L (≈ 13.4 µM).

**Q.** What about the MIC [22] of the same compound?
**A.** Its MIC is over 200 mg/L.

**Q.** And the MIC [23]?
**A.** Its MIC is over 200 mg/L.

**Q.** What about the MIC [24] of the same compound?
**A.** Its MIC is 18.8 mg/L (≈ 53.7 µM).

**Q.** And the MIC [25]?
**A.** Its MIC is 75 mg/L (≈ 215 µM).

**Q.** What about the MIC [26] of the same compound?
**A.** The MIC was over 200 mg/L.

**Q.** And the MIC [27]?
**A.** Its MIC is over 200 mg/L.

**Q.** What about the MIC [28] of the same compound?
**A.** Its MIC is 75 mg/L (≈ 215 µM).

**Q.** And the MIC [29]?
**A.** Its MIC is 18.8 mg/L (≈ 53.7 µM).
